Assay results: US10139415B2, “Method for predicting responsiveness to compound inhibiting MAPK signal transduction pathway” (DAIICHI SANKYO COMPANY, LIMITED, priority 2013, dated 2018)
Like-named read-outs stand apart in the source and are kept apart here. Blank lines part the entries; values can stand above or below the compound they belong to.

What was measured:
[1] = system: MEK; conditions: cited from earlier work
[2] = system: A375 cells; experiment: cell cycle measurement / apoptosis induction (PI staining, flow cytometer); assay type: cell-based
Protocol: (§1) A cell cycle measurement was performed by propidium iodide (PI) staining as described below. First, cells were subjected to drug treatment after 24 hours from seeding thereof in a 6-well plate. After collecting the culture medium and trypsinized cells, they were subjected to centrifugation at 1,000 g for 5 minutes, and the supernatant was removed. 1 mL of PBS^− was added to suspend the cells. The suspension was transferred to a 1.5-mL tube and then subjected to centrifugation treatment at 13,000 g for 1 minute, and the supernatant was removed. 200 μL of PBS^− was added to the residue to suspend the cells, and 1 mL of ice-cold 70% ethanol was added. Then, the cells were vortexed and immobilized at 4° C.
(§2) The immobilized cells were subjected to centrifugation at 1,000 g for 5 minutes, and the supernatant was removed. 1 mL of a PBS^− solution containing 10 μg/mL of RNase was added to the residue to suspend the cells, which was left to stand still at 37° C. for 20 minutes. After that, centrifugation was performed for 5 minutes, and then the supernatant was removed. […] of a PBS^− solution containing PI (50 μg/mL, manufactured by Wako) was added to the residue to suspend the cells. The total volume thereof was passed through a nylon mesh (φ=42 μm) and used as a sample. An intracellular DNA content was detected with PMT4 of a flow cytometer (manufactured by Beckman Coulter) to measure a cell cycle.
(§3) 48 hours after the drug treatment, the cells were collected and subjected to ethanol fixation and PI staining to measure a DNA content with a flow cytometer. […] In addition, the expression amount of a target molecule being phosphorylated was calculated compared to the expression amount of a target molecule to evaluate the influence on a cell cycle at such a concentration of inhibiting the expression of the phosphorylation of the target molecule by 95% or more.
(§4) 48 hours after the drug treatment, the cells were collected and subjected to ethanol fixation and PI staining to measure a DNA content with a flow cytometer. In addition, in order to measure target molecule inhibitory activity in the drug-treated cells, the expression of ERK, phosphorylated ERK, MEK, phosphorylated MEK, and actin in the cells was evaluated by western blotting 24 hours after the drug treatment. In addition, the expression amount of a target molecule being phosphorylated was calculated compared to the expression amount of a target molecule to evaluate the influence of each inhibitor on a cell cycle at such a concentration that the expression of the phosphorylation of the target molecule was inhibited by 95% or more.

[3] = system: DLD-1 cells; experiment: as above; assay type: cell-based; conditions: at the concentration that completely inhibited phosphorylation of ERK, 48 hours
Protocol: as §1, §2, §3, §4

[4] = system: HCT_116 cells; experiment: as above; assay type: cell-based; conditions: at the concentration that completely inhibited phosphorylation of ERK (MEK and ERK for SB590885), 48 hours
Protocol: as §1, §2, §3, §4

[5] = system: HT29 cells; experiment: as above; assay type: cell-based; conditions: at the concentration that completely inhibited phosphorylation of ERK, 48 hours
Protocol: as §1, §2, §3, §4

[6] = system: SW48 cells; experiment: as above; assay type: cell-based; conditions: at the concentration that completely inhibited phosphorylation of ERK, 48 hours
Protocol: as §1, §2, §3, §4

[7] = system: malignant melanoma having an active BRAF mutation; conditions: patients with malignant melanoma having an active BRAF mutation, clinical trial; cited from earlier work
[8] = system: HCT_116 cells; experiment: cell growth-suppressive activity test; assay type: cell-based; conditions: 2D and 3D culture, 72 hours, CellTiter-Glo
Protocol: (§5) A cell growth-suppressive activity test was performed in both of two-dimensional culture and three-dimensional culture. First, a plate for three-dimensional culture was produced. Specifically, poly(2-hydroxyethyl methacrylate) (hereinafter abbreviated as poly-HEMA, manufactured by Sigma) was added to 95% ethanol so that the concentration was 5 mg/mL, and dissolved therein at 37° C. overnight. The solution was used as a poly-HEMA solution. The solution was loaded into a 96-well plate (manufactured by Nunc) at 50 μL/well. The plate was dried at 37° C. to produce a plate for three-dimensional culture coated with poly-HEMA.
(§6) The two-dimensional culture (hereinafter sometimes referred to as 2D culture) and the three-dimensional culture (hereinafter sometimes referred to as 3D culture) were performed by seeding the cells in a 96-well plate at 1×10^3 cells/150 μL/well and 2×10^3 cells/75 μL/well, respectively, and performing drug treatment on the following day. The total volume was set to 200 μL in the two-dimensional culture, and the total volume was set to 100 μL in the three-dimensional culture. Cell growth was measured by measuring intracellular ATP amounts at the time of the drug treatment and 72 hours after the drug treatment. Specifically, after the removal of the culture medium at 100 μL/well, CellTiter-Glo (manufactured by Promega) was added at 50 μL/well in the two-dimensional culture, and CellTiter-Glo was added at 50 μL/well in the three-dimensional culture. After the addition, the plate was shaken with a shaker for 2 minutes and left to stand still at room temperature for 10 minutes. The total volume of each well was transferred to a white 96-well plate (manufactured by Nunc) and measured for its light emission intensity with a Wallac 1420 multilabel counter (manufactured by Perkin Elmer). From the resultant light emission amount, a growth ratio (Growth (%)) relative to a non-drug-treated sample after 72 hours was determined using the following mathematical formula 1 and mathematical formula 2.

[9] = system: SK-MEL-1 cells; experiment: cell growth-suppressive activity test; assay type: cell-based; conditions: 2D and 3D culture, 72 hours, CellTiter-Glo
Protocol: as §5, §6

[10] = system: SW48 cells; experiment: cell growth-suppressive activity test; assay type: cell-based; conditions: 2D and 3D culture, 72 hours, CellTiter-Glo
Protocol: as §5, §6

[11] = system: colo-201 cells; experiment: cell growth-suppressive activity test; assay type: cell-based; conditions: 2D and 3D culture, 72 hours, CellTiter-Glo
Protocol: as §5, §6

[12] = system: colo-205 cells; experiment: cell growth-suppressive activity test; assay type: cell-based; conditions: 2D and 3D culture, 72 hours, CellTiter-Glo
Protocol: as §5, §6

[13] = system: 24 kinds of cell lines; conditions: GI50
Protocol: as §5
The two-dimensional culture (hereinafter sometimes referred to as 2D culture) and the three-dimensional culture (hereinafter sometimes referred to as 3D culture) were performed by seeding the cells in a 96-well plate at 1×10^3 cells/150 μL/well and 2×10^3 cells/75 μL/well, respectively, and performing drug treatment on the following day. […] Cell growth was measured by measuring intracellular ATP amounts at the time of the drug treatment and 72 hours after the drug treatment. […] The total volume of each well was transferred to a white 96-well plate (manufactured by Nunc) and measured for its light emission intensity with a Wallac 1420 multilabel counter (manufactured by Perkin Elmer). […]

[14] = system: phosphorylation of MEK and ERK; experiment: MEK and ERK phosphorylation inhibition by western blotting; assay type: cell-based; conditions: any of the cell lines (A375, HT29, DLD-1, HCT_116, SW48), 0.3-10 μM
Protocol: as §4

SMILES: Cn1cnc2c(F)c(Nc3ccc(Br)cc3Cl)c(C(=O)NOCCO)cc21 [AZD6244]
IC50 ([1]; non-ATP-competitive manner, read-out: MEK inhibition, IC50 value): ~0.012 µM

SMILES: O=C(NOCC1CC1)c1ccc(F)c(F)c1Nc1ccc(I)cc1Cl [PD184352]
apoptosis induction / influence on cell cycle (sub-G1 population) ([2]; at the concentration that completely inhibited phosphorylation of ERK (MEK and ERK for SB590885), 48 hours): remarkable G1 arrest was induced but no apoptosis was induced
apoptosis induction ([2]; concentration higher than that completely inhibiting phosphorylation of ERK): Apoptosis was induced
apoptosis induction / influence on cell cycle (sub-G1 population) [3]: did not exhibit any particular influence
apoptosis induction / influence on cell cycle (sub-G1 population) [4]: apoptosis was induced
apoptosis induction / influence on cell cycle (sub-G1 population) [5]: remarkable G1 arrest was induced but no apoptosis was induced
apoptosis induction / influence on cell cycle (sub-G1 population) [6]: apoptosis was induced

SMILES: O=C(NOC[C@H](O)CO)c1ccc(F)c(F)c1Nc1ccc(I)cc1F [PD0325901]
clinical response, total of a partial response and a complete response [7]: about 10%

sensitivity in growth-suppressive activity test (from GI50) [8]: high sensitivity
sensitivity in growth-suppressive activity test (from GI50) [9]: high sensitivity
sensitivity in growth-suppressive activity test (from GI50) [10]: high sensitivity
sensitivity in growth-suppressive activity test (from GI50) [11]: high sensitivity
sensitivity in growth-suppressive activity test (from GI50) [12]: high sensitivity
SMILES: N#CC(=C(/N)Sc1ccccc1N)/C(C#N)=C(\N)Sc1ccccc1N [U0126]
tendency of drug sensitivity over the cell line panel compared with SMK-17 [13]: 23 out of the 24 kinds of cell lines exhibited a tendency of drug sensitivity similar to that in the case of SMK-17

SMILES: CNC(=O)c1cc(Oc2ccc(NC(=O)Nc3ccc(Cl)c(C(F)(F)F)c3)cc2)ccn1 [sorafenib]
inhibitory effect on the phosphorylation of MEK and ERK [14]: did not provide complete inhibitory effects
